In series [1] the test system is HepG2 (hepatocellular carcinoma). Description: MTT proliferation assay, HepG2 cells. It counts as cell-based, human. The following applies: 72 h, read-out: IC50 (50% growth inhibition) HepG2. As for the experimental part:
(§1) This study was set out to examine the anti-proliferative effects of coumarin derivates (3–18) on human tumor cell lines and normal (diploid) human fibroblasts.
(§2) Cell culturing: Human cell lines HeLa (cervical carcinoma), SW620 (colorectal adenocarcinoma, metastatic), MCF-7 (breast epithelial adenocarcinoma, metastatic), HepG2 (hepatocellular carcinoma) and BJ (normal diploid human fibroblasts) were cultured as monolayers and maintained in Dulbecco’s modified Eagle medium (DMEM) supplemented with 10% fetal bovine serum (FBS), 2 mM L-glutamine, 100 U/mL penicillin and 100 μg/mL streptomycin in a humidified atmosphere with 5% CO2 at 37 °C.
(§3) Proliferation assay: The cell lines were inoculated into a series of standard 96-well microtiter plates on day 0 at seeding density of 3,000–6,000 cells per well depending upon their specific doubling times. Freshly prepared dilutions of test compounds in culture medium in the concentration range 1 × 10^−8–1 × 10^−4 M were added to the microtiter plates, and the cells were grown for further 72 h. The solvent (DMSO) was also tested for its potential inhibitory activity by adjusting its concentration to the values used for the preparation of the working concentrations (DMSO concentration never exceeded 0.1%). After 72 h of incubation, the cell growth rate was evaluated by performing the MTT assay: experimentally determined absorbance values were transformed into the cell percentage growth (PG) using the formulas proposed by NIH and described previously. This method directly relies on control cells behaving normally at the day of assay commencement because it compares the growth of treated cells with that of untreated cells in control wells on the same plate. The results are therefore a percentile difference from the calculated expected value. […] If, however, all of the tested concentrations produce PGs exceeding the respective reference level of effect (e.g., PG value of 50) for a given cell line, the highest tested concentration is assigned as the default value (in the screening data report that default value is preceded by a “>” sign). Each test point was performed in quadruplicate in three individual experiments. The results were statistically analyzed (ANOVA, Tukey post-hoc test at p < 0.05).
(In general: Tetrazolium assays rely on reduction of a dye to a coloured formazan, in cell work by metabolically active cells.)

Series [2] relates to BJ (normal diploid human fibroblasts). Description: MTT proliferation assay, BJ normal fibroblasts. It counts as cell-based. The following applies: 72 h, read-out: IC50 (50% growth inhibition) BJ. As for the experimental part: as §1, §2, §3
Series [3] concerns SW620 (colorectal adenocarcinoma, metastatic). Description: MTT proliferation assay, SW620 cells. In kind it is cell-based, human. The note with it: read-out: IC50 (50% growth inhibition) SW620. As to the method:
as §1, §2, §3

Series [4] concerns MCF-7 (breast epithelial adenocarcinoma, metastatic). Description: MTT proliferation assay, MCF-7 cells. The following applies: read-out: IC50 (50% growth inhibition) MCF-7. In kind it is cell-based, human. As for the experimental part:
as §1, §2, §3

Series [5] concerns HeLa (cervical carcinoma). Description: MTT proliferation assay, HeLa cells. The following applies: 72 h, read-out: IC50 (50% growth inhibition) HeLa. It counts as cell-based, human. As to the method:
as §1, §2, §3

Where “and” joins values, the source holds several entries; their conditions need not be identical. Equal values may be shown once. Read-outs that look alike come from different tables or passages of the source.

As to “1-(4-Hydroxy-2-(2-hydroxy-4-methoxyphenyl)butyl)guanine [Compound 18]”, the half-inhibitory concentration (IC50) in series [1], in series [2], in series [3] (72 h), in series [4] (72 h) and in series [5] was over 100 µM each time.

Regarding “1-((7-Hydroxy-2-oxo-2H-chromen-4-yl)methyl)-2-amino-6-chloropurine [Compound 10]”, the IC50 in series [1] is 25 µM and 25.6 µM; in series [2], over 100 µM; in series [3] (72 h), 35 µM and 35.4 µM; in series [4] (72 h), over 100 µM; in series [5] it was 34 ± 8.4 µM.

On to “1-((7-Hydroxy-2-oxo-2H-chromen-4-yl)methyl)-2-aminopurine [Compound 11]”, for which the 50% inhibitory concentration (IC50) in series [1], in series [2], in series [3] (72 h), in series [4] (72 h) and in series [5] was over 100 µM in each case.

For “1-((7-Hydroxy-2-oxo-2H-chromen-4-yl)methyl)-6-chloropurine [Compound 8]”, the 50% inhibitory concentration (IC50) in series [1], in series [2], in series [3] (72 h), in series [4] (72 h) and in series [5] was over 100 µM each time.

“1-((7-Hydroxy-2-oxo-2H-chromen-4-yl)methyl)purine [Compound 9]”: the IC50 in series [1], in series [2], in series [3] (72 h), in series [4] (72 h) and in series [5] was over 100 µM in each case.

On to “1-((7-Methoxy-2-oxo-2H-chromen-4-yl)methyl)-2-amino-6-chloropurine [Compound 12]”, for which the half-maximal inhibitory concentration (IC50) in series [1], in series [2], in series [3] (72 h), in series [4] (72 h) and in series [5] was over 100 µM throughout.

Take “1-((7-Methoxy-2-oxo-2H-chromen-4-yl)methyl)guanine [Compound 13]”: the IC50 in series [1], in series [2], in series [3] (72 h), in series [4] (72 h) and in series [5] was over 100 µM in each case.

The molecule `COC(=O)c1ncn(Cc2cc(=O)oc3cc(O)ccc23)n1` [Compound 3, Methyl 1-((7-hydroxy-2-oxo-2H-chromen-4-yl)methyl)-1,2,4-triazole-3-carboxylate] showed a melting point of 216 to 218 °C. Besides, the IC50 in series [1] (Homo sapiens) is over 100 µM. The 50% inhibitory concentration (IC50) in series [2] (Homo sapiens, Fibroblast) was over 100 µM. Also, in series [3] (Homo sapiens, SW-620, 72 h), the half-inhibitory concentration (IC50) was over 100 µM. In addition, the concentration for half-maximal inhibition (IC50) in series [4] (Homo sapiens, MCF7, 72 h) was over 100 µM. In series [5] (Homo sapiens, HeLa), the IC50 is over 100 µM.

For `NC(=O)c1ncn(Cc2cc(=O)oc3cc(O)ccc23)n1` [Compound 4, 1-((7-Hydroxy-2-oxo-2H-chromen-4-yl)methyl)-1,2,4-triazole-3-carboxamide], the IC50 in series [1] (Homo sapiens) was over 100 µM; in series [2] (Homo sapiens, Fibroblast), over 100 µM; in series [3] (Homo sapiens, SW-620, 72 h), over 100 µM; in series [4] (Homo sapiens, MCF7, 72 h), over 100 µM; in series [5] (Homo sapiens, HeLa), over 100 µM.

Molecule `COC(=O)c1ncn(Cc2cc(=O)oc3cc(OC)ccc23)n1` [Compound 5, Methyl 1-((7-Methoxy-2-oxo-2H-chromen-4-yl)methyl)-1,2,4-triazole-3-carboxylate] registered a melting point of 234 to 237 °C. Moreover, the 50% inhibitory concentration (IC50) in series [1] (Homo sapiens) was over 100 µM. In addition, the IC50 in series [2] (Homo sapiens, Fibroblast) is over 100 µM. In series [3] (Homo sapiens, SW-620, 72 h), the IC50 was over 100 µM. Besides, the 50% inhibitory concentration (IC50) in series [4] (Homo sapiens, MCF7, 72 h) is over 100 µM. Besides, the half-inhibitory concentration (IC50) in series [5] (Homo sapiens, HeLa) was over 100 µM.

Turning to `COc1ccc2c(Cn3cnc(C(N)=O)n3)cc(=O)oc2c1` [Compound 6, 1-((7-Methoxy-2-oxo-2H-chromen-4-yl)methyl)-1,2,4-triazole-3-carboxamide], the IC50 in series [1] (Homo sapiens) was over 100 µM; in series [2] (Homo sapiens, Fibroblast), over 100 µM; in series [3] (Homo sapiens, SW-620, 72 h), over 100 µM; in series [4] (Homo sapiens, MCF7, 72 h) it was over 100 µM; in series [5], 35.5 ± 13.5 µM; in series [5] (Homo sapiens, HeLa), 35 µM.

The molecule `N#Cc1ncn(Cc2cc(=O)oc3cc(O)ccc23)c1C#N` [Compound 7, 1-((7-Hydroxy-2-oxo-2H-chromen-4-yl)methyl)-4,5-dicyanoimidazole] came in with a melting point of 238 to 240 °C. Further, in series [1] (Homo sapiens), the IC50 was over 100 µM. In addition, the IC50 in series [2] (Homo sapiens, Fibroblast) was over 100 µM. Also, the half-inhibitory concentration (IC50) in series [3] (Homo sapiens, SW-620, 72 h) is over 100 µM. Besides, the IC50 in series [4] (Homo sapiens, MCF7, 72 h) was over 100 µM. In addition, the IC50 in series [5] (Homo sapiens, HeLa) is over 100 µM.

For the molecule `CCOC(=O)c1ncn(CC(CCO)c2ccc(OC)cc2O)n1` (stereo not drawn) [Compound 14, Ethyl 1-(4-hydroxy-2-(2-hydroxy-4-methoxyphenyl)butyl)-1,2,4-triazole-3-carboxylate], the IC50 in series [1] (Homo sapiens) was over 100 µM; in series [2] (Homo sapiens, Fibroblast), over 100 µM; in series [3] (Homo sapiens, SW-620, 72 h), over 100 µM; in series [4] (Homo sapiens, MCF7, 72 h) it was over 100 µM; in series [5] (Homo sapiens, HeLa), over 100 µM.

Consider `COc1ccc(C(CCO)Cn2cnc(C(N)=O)n2)c(O)c1` (stereo not drawn) [Compound 15, 1-(4-Hydroxy-2-(2-hydroxy-4-methoxyphenyl)butyl)-1,2,4-triazole-3-carboxamide], for which the half-maximal inhibitory concentration (IC50) in series [1] (Homo sapiens) was over 100 µM; in series [2] (Homo sapiens, Fibroblast), over 100 µM; in series [3] (Homo sapiens, SW-620, 72 h), over 100 µM; in series [4] (Homo sapiens, MCF7, 72 h) it was over 100 µM; in series [5] (Homo sapiens, HeLa), over 100 µM.

`COc1ccc(C(CCO)Cn2cncn2)c(O)c1` (stereo not drawn) [Compound 16, 1-(4-hydroxy-2-(2-hydroxy-4-methoxyphenyl)butyl)-1,2,4-triazole]: the half-inhibitory concentration (IC50) in series [1] (Homo sapiens) was over 100 µM; in series [2] (Homo sapiens, Fibroblast), over 100 µM; in series [3] (Homo sapiens, SW-620, 72 h) it was over 100 µM; in series [4] (Homo sapiens, MCF7, 72 h), over 100 µM; in series [5] (Homo sapiens, HeLa), over 100 µM.

In the case of `COc1ccc(C(CCO)Cn2cnc(CO)n2)c(O)c1` (stereo not drawn) [Compound 17, ethyl 1-(4-hydroxy-2-(2-hydroxy-4-methoxyphenyl)butyl)-1,2,4-triazole-3-hydroxymethyl], the IC50 in series [1] (Homo sapiens) is over 100 µM; in series [2] (Homo sapiens, Fibroblast) it was over 100 µM; in series [3] (Homo sapiens, SW-620, 72 h), over 100 µM; in series [4] (Homo sapiens, MCF7, 72 h), over 100 µM; in series [5] (Homo sapiens, HeLa), over 100 µM.

Usually IC50 stands for the point on the concentration scale where inhibition reaches its midpoint. As usually defined, the melting point is the temperature of the solid-liquid transition.

For the origin of these results see article PMC6268888, “Novel Coumarin Derivatives Containing 1,2,4-Triazole, 4,5-Dicyanoimidazole and Purine Moieties: Synthesis and Evaluation of Their Cytostatic Activity” (Molecules, 2012).
